ChEMBL document CHEMBL1151663, “Further explorations of unnatural alkaloids” (J Nat Prod, 1985)
The source made the active and inactive calls. No cut-off for these calls is given here.

Legend:
[1] = biological target: T1, Amine oxidase [flavin-containing] B (Homo sapiens, UniProt P27338); test: Activity of human liver MAOB assessed as specific activity at 1 mM; settings: 1000 µM
T1 sequence (P27338 whole entry): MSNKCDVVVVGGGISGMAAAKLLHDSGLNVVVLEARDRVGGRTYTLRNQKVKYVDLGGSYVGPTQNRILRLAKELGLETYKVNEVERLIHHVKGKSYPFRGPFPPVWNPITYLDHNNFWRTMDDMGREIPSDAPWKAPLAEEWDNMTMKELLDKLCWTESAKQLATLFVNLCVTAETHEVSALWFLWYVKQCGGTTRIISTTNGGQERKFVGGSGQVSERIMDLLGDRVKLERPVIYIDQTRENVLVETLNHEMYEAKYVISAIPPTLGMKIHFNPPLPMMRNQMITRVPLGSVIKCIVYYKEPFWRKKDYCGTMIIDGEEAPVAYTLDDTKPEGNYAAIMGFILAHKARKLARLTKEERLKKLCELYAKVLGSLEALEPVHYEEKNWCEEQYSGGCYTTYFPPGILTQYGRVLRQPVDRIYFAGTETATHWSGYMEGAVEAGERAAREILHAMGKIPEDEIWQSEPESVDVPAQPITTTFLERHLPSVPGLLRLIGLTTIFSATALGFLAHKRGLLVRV

Mus musculus = organism: Mus musculus; test: Analgesic activity in mouse by hot plate test; type: functional, organism-based
[2] = biological target: T2, MAO-B (amine oxidase [flavin-containing] B) (Homo sapiens, UniProt P27338); test: Inhibition of human liver MAOB at 1 mM relative to MPTP
T2 sequence (P27338 whole entry): T1 sequence (P27338 whole entry)

Rattus norvegicus = organism: Rattus norvegicus; test: Displacement of [3H]colchicine from rat brain tubulin at 25 uM
[3] = Toxicity in intramuscular dosed mouse; type: organism-based; settings: in vivo, im

Compound | Activity [1] | further results
CCCCN1CC=C(c2ccccc2)CC1 | < 5 nmol/min/mg | 
CC(C)N1CC=C(c2ccccc2)CC1 | < 5 nmol/min/mg | 
C=CCN1CC=C(c2ccccc2)CC1 | < 5 nmol/min/mg | 
C1=C(c2ccccc2)CCN(Cc2ccccc2)C1 | < 5 nmol/min/mg | 
CN1CC[C@]2(C)c3cc(O)ccc3N(C)[C@H]12 |  | Activity (Mus musculus): inactive
C1=C(c2ccccc2)CCNC1 | 58.6 nmol/min/mg | inhibition at 1000 µM [2]: 68.8%
CN1CC[C@@]2(C)c3cc(O)ccc3N(C)[C@@H]12 |  | Activity (Mus musculus): Active
CCN1CC=C(c2ccccc2)CC1 | 8.82 nmol/min/mg | inhibition at 1000 µM [2]: 10.4%
CC1CN(C)CC=C1c1ccccc1 (centres undefined) | 11.4 nmol/min/mg | inhibition at 1000 µM [2]: 13.4%
CN1CCC=C(c2ccccc2)C1 | < 5 nmol/min/mg | 
C=CC(=O)N[C@H]1CCc2cc(OC)c(OC)c(OC)c2-c2ccc(OC)c(=O)cc21 |  | inhibition (Rattus norvegicus): 82%; LD50 [3]: 17.4 µmol/kg
CN1CC=CC(c2ccccc2)C1 (centres undefined) | < 5 nmol/min/mg | 
CCCN1CC=C(c2ccccc2)CC1 | < 5 nmol/min/mg | 
CCCC(=O)N[C@H]1CCc2cc(OC)c(OC)c(OC)c2-c2ccc(OC)c(=O)cc21 |  | inhibition (Rattus norvegicus; tested as the 2H-labelled form): 79%
COc1cc2c(c(OC)c1OC)-c1ccc(OC)c(=O)cc1[C@@H](NC(C)=O)CC2 [COLCHICINE] |  | LD50 [3]: 3 µmol/kg
CN1CC=C(c2ccccc2)CC1 | 85.2 nmol/min/mg | inhibition at 1000 µM [2]: 100%
CN1CC=C(c2ccc(O)cc2)CC1 | < 5 nmol/min/mg | 
C/C=C/C(=O)N[C@H]1CCc2cc(OC)c(OC)c(OC)c2-c2ccc(OC)c(=O)cc21 |  | inhibition (Rattus norvegicus): 67%; LD50 [3]: 3.4 µmol/kg
CN1CC=C(c2ccc(Cl)cc2)CC1 | 5.8 nmol/min/mg | inhibition at 1000 µM [2]: 6.8%
C1=C(c2ccccc2)CCN(CC2CC2)C1 | < 5 nmol/min/mg | 
CC1=C(c2ccccc2)CCN(C)C1 | 5.3 nmol/min/mg | inhibition at 1000 µM [2]: 6.2%
